In ChEMBL document CHEMBL1201862, “PubChem BioAssay data set” (2004):
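Grown in 96-well plates, cells were treated for 48 hours with each compound at five concentrations. Insufficient inhibition: endpoint recorded as highest concentration tested. GI50 = concentration required for 50% inhibition of growth.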 Active and inactive are the calls of the source. Rule as the data show it: active = GI50 up to about 1.1 µM and inactive = higher.

Tests used:
Experiment in all cases: DTP human tumour cell line panel, 48 h
TK-10 = tested on: TK-10
K562 = tested on: K562
Malme-3M = tested on: Malme-3M
SF-295 = tested on: SF-295
HCC 2998 = tested on: HCC 2998
NCI-H460 = tested on: NCI-H460
SK-MEL-2 = tested on: SK-MEL-2
A549 = tested on: A549
M19-MEL = tested on: M19-MEL
DMS-114 = tested on: DMS-114
MOLT-4 = tested on: MOLT-4
NCI-H226 = tested on: NCI-H226
SF-268 = tested on: SF-268
HCT-116 = tested on: HCT-116
SN12C = tested on: SN12C
SK-OV-3 = tested on: SK-OV-3
RXF 393 = tested on: RXF 393

Measured: GI50

CC(=O)O[C@@]1(C)[C@@H](C)C(=O)O[C@@H]2CCN3CC=C(COC(=O)[C@]1(C)O)[C@H]23
inactive: TK-10 > 100 µM | K562 > 100 µM | Malme-3M > 100 µM | SF-295 > 10 µM | HCC 2998 > 100 µM | NCI-H460 > 100 µM | SK-MEL-2 > 100 µM | A549 > 100 µM | M19-MEL > 100 µM | DMS-114 > 100 µM | MOLT-4 > 100 µM | NCI-H226 > 100 µM | SF-268 > 100 µM | HCT-116 > 100 µM

COC(=O)[C@]12CCC(C)[C@H](C)[C@H]1C1=CCC3[C@@]4(C)CC[C@H](OC(C)=O)C(C)(C)C4CC[C@@]3(C)C1(C)C(O)C2 (stereo not given in full)
inactive: TK-10 > 100 µM | K562 89.1 µM | Malme-3M > 100 µM | SF-295 > 100 µM | HCC 2998 > 100 µM | NCI-H460 > 100 µM | SK-MEL-2 > 100 µM | SN12C > 100 µM | A549 > 100 µM | SK-OV-3 > 100 µM | M19-MEL > 100 µM | DMS-114 61.7 µM | MOLT-4 86.5 µM | NCI-H226 27.1 µM | SF-268 > 100 µM | HCT-116 54.2 µM

COc1ccccc1NC(=O)CC(=O)N1N=C(c2ccccc2)C(/N=N/c2ccc(Cl)cc2)C1=O (stereo not given)
inactive: TK-10 27.7 µM | K562 29 µM | SF-295 30.5 µM | HCC 2998 45.6 µM | NCI-H460 34.8 µM | SK-MEL-2 69.7 µM | SN12C 68.1 µM | A549 25.1 µM | SK-OV-3 21.9 µM | M19-MEL 57.1 µM | DMS-114 70.1 µM | MOLT-4 41.1 µM | NCI-H226 27.5 µM | SF-268 50.2 µM | HCT-116 30.1 µM

CCOC(=N)CC(=O)NC(C)c1ccccc1 (stereo not given)
inactive: TK-10 > 100 µM | K562 > 100 µM | Malme-3M > 100 µM | SF-295 > 100 µM | HCC 2998 87.7 µM | NCI-H460 > 100 µM | SK-MEL-2 > 100 µM | RXF 393 > 100 µM | SN12C > 100 µM | A549 > 100 µM | SK-OV-3 > 100 µM | M19-MEL > 100 µM | MOLT-4 > 100 µM | NCI-H226 > 100 µM | SF-268 > 100 µM | HCT-116 > 100 µM

Cc1cccc(C)c1NC(=O)C1C(=O)N(c2c(C)cccc2C)C(=O)/C1=N\N (stereo not given)
inactive: TK-10 > 100 µM | K562 > 100 µM | Malme-3M > 100 µM | SF-295 > 100 µM | HCC 2998 > 100 µM | SK-MEL-2 > 100 µM | RXF 393 > 100 µM | SN12C > 100 µM | A549 > 100 µM | SK-OV-3 > 100 µM | M19-MEL > 100 µM | MOLT-4 > 100 µM | NCI-H226 > 100 µM | SF-268 > 100 µM | HCT-116 > 100 µM

NC(=O)C(c1ccccc1)N1CCOCC1 (stereo not given)
inactive: TK-10 > 100 µM | K562 > 100 µM | Malme-3M > 100 µM | SF-295 > 100 µM | NCI-H460 > 100 µM | SK-MEL-2 > 100 µM | RXF 393 > 100 µM | SN12C > 100 µM | A549 > 100 µM | SK-OV-3 > 100 µM | M19-MEL > 100 µM | DMS-114 > 100 µM | MOLT-4 > 100 µM | NCI-H226 > 100 µM | SF-268 > 100 µM | HCT-116 > 100 µM

COc1cccc(NC(=O)CC(=O)N2NC(C)C(/N=N/c3cccc(C(=O)O)c3)C2=O)c1 (stereo not given)
inactive: TK-10 > 100 µM | K562 > 100 µM | Malme-3M > 100 µM | SF-295 > 100 µM | HCC 2998 > 100 µM | NCI-H460 > 100 µM | SK-MEL-2 > 100 µM | SN12C > 100 µM | A549 > 100 µM | SK-OV-3 > 100 µM | M19-MEL > 100 µM | DMS-114 > 100 µM | MOLT-4 > 100 µM | NCI-H226 > 100 µM | SF-268 > 100 µM | HCT-116 > 100 µM

Nc1nc(-c2ccccc2)cc(-c2ccccc2O)n1
inactive: TK-10 46.7 µM | K562 39.1 µM | Malme-3M > 100 µM | SF-295 71.6 µM | HCC 2998 40.7 µM | NCI-H460 36.2 µM | RXF 393 27.3 µM | SN12C 37.8 µM | A549 34.6 µM | SK-OV-3 85.9 µM | M19-MEL 43.1 µM | DMS-114 35.2 µM | MOLT-4 25.1 µM | NCI-H226 19 µM | SF-268 24 µM | HCT-116 20.7 µM

CN(CN1C(=O)C2Cc3ccccc3CN2C1=O)c1ccccn1 (stereo not given)
inactive: TK-10 > 100 µM | K562 > 100 µM | Malme-3M > 100 µM | SF-295 > 100 µM | HCC 2998 > 100 µM | NCI-H460 > 100 µM | SK-MEL-2 > 100 µM | SN12C > 100 µM | A549 > 100 µM | M19-MEL > 100 µM | DMS-114 > 100 µM | MOLT-4 > 100 µM | NCI-H226 > 100 µM | SF-268 > 100 µM

CC1CCCP(=O)(c2ccccc2)CCC1 (stereo not given)
inactive: TK-10 > 100 µM | K562 > 100 µM | Malme-3M > 100 µM | SF-295 > 100 µM | HCC 2998 > 100 µM | NCI-H460 > 100 µM | SK-MEL-2 > 100 µM | RXF 393 > 100 µM | SN12C > 100 µM | A549 > 100 µM | SK-OV-3 > 100 µM | M19-MEL > 100 µM | DMS-114 > 100 µM | MOLT-4 > 100 µM | SF-268 > 100 µM

COc1ccc(/C=C(/C(=O)O)c2cc(OC)c(OC)c(OC)c2)cc1
inactive: K562 38.5 µM | Malme-3M 30.1 µM | HCC 2998 > 100 µM | NCI-H460 48.1 µM | SK-MEL-2 47.5 µM | SN12C 46.9 µM | A549 56.1 µM | SK-OV-3 > 100 µM | M19-MEL 79.8 µM | DMS-114 40.2 µM | MOLT-4 45.4 µM | NCI-H226 44.8 µM | SF-268 70.1 µM | HCT-116 53.3 µM

N=C(c1ccccc1)N(c1ccccc1)c1ccccc1
inactive: TK-10 > 100 µM | Malme-3M 23.4 µM | SF-295 > 100 µM | HCC 2998 > 100 µM | NCI-H460 87.5 µM | SK-MEL-2 > 100 µM | RXF 393 30.5 µM | SN12C 22.5 µM | A549 > 100 µM | M19-MEL > 100 µM | NCI-H226 23.1 µM | SF-268 48.6 µM | HCT-116 40.5 µM

O=CC1=CCCC2(C1)OCCO2
inactive: TK-10 > 100 µM | K562 > 100 µM | Malme-3M > 100 µM | SF-295 > 100 µM | HCC 2998 > 100 µM | NCI-H460 > 100 µM | SK-MEL-2 > 100 µM | RXF 393 > 100 µM | SN12C > 100 µM | A549 > 100 µM | SK-OV-3 > 100 µM | M19-MEL > 100 µM | DMS-114 > 100 µM | SF-268 > 100 µM | HCT-116 > 100 µM
